For 91 molecules, IC50 results are on record in PubChem BioAssay AID602156 (GNF / Scripps Winzeler lab, 2011).

This test has as its system P. yoelii liver stage in HepG2-A16-CD81EGFP, imaging. The test is described as follows: exo-erythrocytic parasite development inhibition – imaging, Malaria Box, P. yoelii, HepG2-A16-CD81EGFP, dose response (AID 602156).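 Further: infected cells exposed to compound for 48 hours before fixation.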

For orientation: IC50 means the concentration at which inhibition is half-maximal.

Structures are written as SMILES. Activity calls are given as the source filed them. How the calls were made is not given here. A value given as a limit tells only on which side of the number the result lay.

On to `COc1ccccc1Cc1nc2ccccc2nc1SCC(=O)Nc1cccc(C(F)(F)F)c1`, for which the IC50 was > 10 µM (inactive).
For the molecule `COc1cccc(Nc2nc(NCCO)c3ccccc3n2)c1`, the IC50 is 0.0623 µM.
Under `Fc1ccccc1Nc1nc(NCc2ccccc2)c2ccccc2n1` stands 0.69 µM.
Under `Nc1ccc(-c2nc3cc(Oc4ccc(Oc5ccc6[nH]c(-c7ccc(N)cc7)nc6c5)cc4)ccc3[nH]2)cc1` stands 0.319 µM.
Next, `CCN(CC)CCCN(Cc1cc2cc(OC)c(OC)cc2[nH]c1=O)C(=S)Nc1cccc(Cl)c1`: 0.163 µM; `COc1ccc(C2N(Cc3ccccc3)c3ccccc3N2Cc2ccccc2)cc1`: 0.121 µM.
For the molecule `CCC(C)(C)c1ccc(OCCOCC[n+]2ccccc2)c(C(C)(C)CC)c1`, the half-maximal inhibitory concentration (IC50) was 0.0962 µM.
Next, `O=C1C2=C(Nc3ccccc3SC2c2ccc(OCc3ccccc3)cc2)c2ccccc21` (stereo unspecified): 0.058 µM; `COc1cc(C(=O)N2N=C(c3c(-c4ccccc4)c4cc(Br)ccc4[nH]c3=O)CC2c2cccc([N+](=O)[O-])c2)cc(OC)c1OC` (stereo unspecified): 0.435 µM; `CC[n+]1c(/C=C/C=C2\N(C)c3ccccc3C2(C)C)n(-c2ccccc2)c2cc(Cl)ccc21`: 0.0136 µM.
Turning to `COC(=O)C1=CNC=C(C(=O)OC)C1c1cc(OC)c(OC)c(OC)c1`, the IC50 was > 10 µM (inactive).
As for `c1ccc(-c2nn(-c3ccccc3)[n+](-c3ccccc3)n2)cc1`, the IC50 was 0.107 µM.
Under `CCN(CC)CCN(Cc1cc2ccc(C)cc2[nH]c1=O)C(=S)NC(C)c1ccccc1` (stereo unspecified) stands 0.883 µM.
Under `CCN1/C(=C/c2ccc3ccccc3[n+]2CC)Sc2sc3ccccc3c21` stands 0.00621 µM.
Next, `CCN(CC)CCCC(C)Nc1c2ccc(Cl)cc2nc2ccc(OC)cc12` (stereo unspecified): 0.166 µM.
On to `CC(=O)N1c2ccc(C)cc2C(C)(c2ccccc2)CC1(C)C` (stereo unspecified), for which the IC50 was 1.25 µM.
Next, `CCOC(=O)c1ccc(NC(=O)CSc2nc(NCc3ccccc3)c3ccccc3n2)cc1`: 0.0381 µM; `Clc1ccccc1-c1nc([P+](c2ccccc2)(c2ccccc2)c2ccccc2)c(N2CCOCC2)o1`: 0.0956 µM.
Under `CC(c1nc2ccc(Cl)cc2c(=O)n1C)N1CCN(S(=O)(=O)c2cccc3ccccc23)CC1` (stereo unspecified) stands 0.0223 µM; under `Cc1cc(N)c2ccccc2[n+]1CCCCCCCCCC[n+]1c(C)cc(N)c2ccccc21`, 0.566 µM.
Next, `CCOc1ccc(Nc2nc(NCc3ccccc3)c3ccccc3n2)cc1`: 0.48 µM; `COc1cc(OC)c(NC(=O)C2c3ccccc3C(=O)N(C)C2c2ccc(OC)c(OC)c2)cc1Cl` (stereo unspecified): > 9.13 µM (inactive); `CCCCCCN(C(=O)c1ccc(C(C)(C)C)cc1)C(CC)c1nc2ccccc2c(=O)n1-c1ccc(F)cc1` (stereo unspecified): > 6.91 µM (inactive).
Take `CCOc1ccc2[nH]c(=O)c(CN(CCN(CC)CC)C(=S)NCCCN(CC)CC)cc2c1`: the IC50 was 2.17 µM.
Under `C[C@@H]1C[C@@H]([C@H](O)CC2CC(=O)NC(=O)C2)C(=O)[C@@H](C)C1` stands 0.0781 µM; under `CC(=O)Nc1ccc(-c2nc(-c3ccc(Oc4ccc(-c5[nH]c(-c6ccc(NC(C)=O)cc6)nc5-c5ccccc5)cc4)cc3)c(-c3ccccc3)[nH]2)cc1`, > 3.73 µM (inactive); under `COc1ccc(-c2c(C(F)(F)F)nn(C)c2NC(=O)Nc2ccc(F)cc2F)cc1`, 3.45 µM.
Next, `c1ccc2cc3c(N4CCN(CCN5CCN(c6ccnc7cc8ccccc8cc67)CC5)CC4)ccnc3cc2c1`: 2.91 µM; `O=c1c2c([nH]c3ccccc13)CCCC2`: 0.5 µM; `CCc1nc(N)nc(N)c1-c1ccc(Cl)cc1`: 0.00215 µM.
Turning to `CC(c1nc2ccccc2c(=O)n1C)N1CCN(C(=O)C(C)(C)C)CC1` (stereo unspecified), the IC50 was 0.492 µM.
Under `CCOC(=O)c1c(CSc2ccccc2)oc2cc(CN(C)C)c(O)c(Cl)c12` stands 7.2 µM; under `COc1ccc(C2CC(=O)C3=C(C2)NC(C)=C(C(=O)OC(C)C)C3c2cccc(C)c2)cc1OC` (stereo unspecified), 1.84 µM.
Next, `Oc1c(C(Nc2ccccn2)c2cccc(Cl)c2Cl)ccc2cccnc12` (stereo unspecified): 0.402 µM; `OCCNc1nc(Nc2ccccc2)nc2ccccc12`: 0.0479 µM.
Under `CC1(C)N=C(N)N=C(N)N1c1ccccc1` stands 0.1 µM; under `N#CC1=C(N)Oc2c3c(c4ccccc4c2C1c1ccc(F)cc1)C(c1ccc(F)cc1)C(C#N)=C(N)O3` (stereo unspecified), 3.93 µM; under `O=C(c1cccs1)N1CCN(c2ccc([N+](=O)[O-])c(NC3CC3)c2)CC1`, 0.692 µM.
In the case of `Cc1ccc2nc3nc4c(C)cccc4c(N)c3cc2c1`, the IC50 is 0.0474 µM.
Next, `Cn1ncnc2c(=O)n(C)c(=O)nc1-2`: 0.103 µM.
Next, `CCc1noc(C)c1C(=O)NCCN1Cc2ccccc2OC(c2ccsc2)C1` (stereo unspecified): > 10 µM (inactive).
For `CC(=O)N(C)C1=C(N2CCCC2)C(=O)c2ccccc2C1=O`, the 50% inhibitory concentration (IC50) is 4.95 µM.
Under `O=C(c1ccc([N+](=O)[O-])cc1)c1ccc(Cl)c(Cl)c1` stands 1.64 µM; under `C=CCN1C(=Cc2cc[n+](C)cc2)Sc2ccccc21`, 0.0132 µM.
Next, `C1CCC(NP2(NC3CCCCC3)=NP(NC3CCCCC3)(NC3CCCCC3)=NP(NC3CCCCC3)(NC3CCCCC3)=N2)CC1`: 0.0186 µM; `Cc1ccc(-n2c(-c3ccccc3)cc(C=NNC(=O)c3cccc(-n4c(C)ccc4C)c3)c2-c2ccccc2)cc1`: 0.0479 µM; `COc1ccc2nc(C)cc(Nc3ccc(Cl)c(Cl)c3)c2c1`: 0.438 µM.
Next, `O=C(Cc1ccccc1)NC(c1ccc(Cl)cc1)c1ccc2cccnc2c1O` (stereo unspecified): 0.19 µM.
Regarding `COc1ccc(NC(=O)COc2ccccc2C(C)C)c(OC)c1`, the IC50 was > 10 µM (inactive).
Next, `CC1CC(N(C(=O)c2ccc(Cl)cc2Cl)c2ccccc2)c2ccccc2N1C(=O)c1ccc(Cl)cc1` (stereo unspecified): 3.64 µM; `Cc1ccc(Nc2cc(C)nc(NCc3ccccc3)n2)c(C)c1`: 1.3 µM.
Next, `Cc1nc([P+](c2ccccc2)(c2ccccc2)c2ccccc2)c(SCc2ccccc2)o1`: 0.0335 µM; `Cc1ccccc1N=Nc1ccc(NC(=O)c2ccco2)c(C)c1`: 0.299 µM; `CCCc1c(C)[nH]c2ccccc2c1=O`: 0.279 µM.
For `O=C(O)c1c[nH]c2cc(N3CCCCCC3)c(F)cc2c1=O`, the IC50 was > 10 µM (inactive).
Under `CCCCCCOc1ccc(C(C)=NNC2=NCCN2)cc1[N+](=O)[O-]` stands 0.784 µM; under `Cc1ccc(-n2c(-c3ccccc3)cc(C=NNC(=O)c3cccc(O)c3)c2-c2ccccc2)cc1`, 0.0202 µM; under `CCOc1ccc(CN(C(=O)COc2ccc(Cl)cc2)C(C)CCCN(CC)CC)cc1` (stereo unspecified), 0.0204 µM.
Next, `Clc1cccc(Nc2nc(NCc3ccco3)c3ccccc3n2)c1`: 0.383 µM; `CCN(CC)CCCNc1nc2cc(OC)c(OC)cc2c2nc(-c3ccccc3)nn12`: 0.327 µM; `CC[n+]1cc(-c2ccc(C)cc2)sc1C=C1Sc2ccccc2N1C`: 0.0045 µM.
Next, `CC[C@H]1CN2CCc3cc(OC)c(OC)cc3[C@@H]2C[C@@H]1C[C@H]1NCCc2cc(OC)c(OC)cc21`: 0.00749 µM; `CN(C)c1oc(-c2ccc(Cl)cc2Cl)nc1[P+](c1ccccc1)(c1ccccc1)c1ccccc1`: 0.129 µM.
With `CCOC(=O)C1=C(C)NC2=C(C(=O)C(C(=O)OCC)C(c3ccccc3OC)C2)C1c1ccc([N+](=O)[O-])cc1` (stereo unspecified), the IC50 was 0.335 µM.
Next, `Cc1ccc(-c2[nH]n3c(=O)c4c(nc3c2C)CCCC4)cc1`: 0.0113 µM; `O=C1C2=C(Nc3ccccc3SC2c2ccccc2)c2ccccc21` (stereo unspecified): 0.0937 µM; `O=C1C2=C(Nc3ccccc3SC2c2cccs2)c2ccccc21` (stereo unspecified): 0.0904 µM.
Next, `Cc1c(Cl)cccc1N1C(=O)C2C3c4ccccc4C(c4ccccc43)C2C1=O` (stereo unspecified): > 10 µM (inactive); `CCOC(=O)c1c[nH]c2ccc(C(C)C)cc2c1=O`: 0.352 µM.
Under `O=C(Cc1cccs1)N1CCN(c2ccccn2)CC1` stands > 10 µM (inactive).
For the molecule `CCCCCCCC[n+]1c(C)n(CC)c2cc(C(=O)OCC)ccc21`, the IC50 is 0.99 µM.
Under `CN(C)CCCN(Cc1cc2cc3c(cc2[nH]c1=O)OCO3)C(=S)Nc1cccc(Cl)c1` stands 0.818 µM; under `c1ccc(-c2cc(N3CCN(c4ccccn4)CC3)nc(-c3ccccn3)n2)nc1`, 0.0175 µM.
Next, `O=C(NC1CC1)C1CCN(c2cccc3c2C(=O)N(Cc2cccc(C(F)(F)F)c2)C3=O)CC1`: 0.0293 µM; `Cc1nc2ccc(NC(=O)C3CC3)cc2c(=O)n1Cc1ccc(Cl)cc1`: > 10 µM (inactive).
Under `CCOc1ccc(Nc2cc(=O)oc3ccccc23)cc1` stands 0.502 µM.
Consider `CC1(C)C2CCC(C2)C1(C)NC(=S)NN=Cc1ccccn1` (stereo unspecified), for which the IC50 was 0.0174 µM.
Next, `COc1cccc(C(=O)NC(c2ccccc2OC)c2cc(Cl)c3cccnc3c2O)c1` (stereo unspecified): 0.544 µM; `O=c1c2ccccc2[nH]c2ccc(F)cc12`: 0.223 µM; `O=C(Nc1ccc2oc(-c3cccc4ccccc34)nc2c1)c1ccc([N+](=O)[O-])o1`: 0.0725 µM.
With `COc1ccc2nc(SCC(=O)Nc3cccc(NC(=O)CSc4nc5ccc(OC)cc5[nH]4)n3)[nH]c2c1`, the IC50 was > 9.29 µM (inactive).
Under `Cc1cc(NC(c2cccc(Br)c2)c2ccc3cccnc3c2O)no1` (stereo unspecified) stands 0.147 µM; under `CCOc1ccc2ncc(S(=O)(=O)c3ccc(OC)cc3)c(N3CCN(C)CC3)c2c1`, 0.0107 µM; under `CN1C(=O)N(C)C(NNC(N)=S)C1NNC(N)=S` (stereo unspecified), 0.015 µM.
For the molecule `Cc1ccc(Nc2nc(NCc3ccccc3)c3ccccc3n2)cc1`, the IC50 is 0.278 µM.
Next, `CCCCN(CCCC)S(=O)(=O)c1ccc(NC(=O)c2ccco2)cc1`: 0.377 µM.
Under `Cc1ccc(CSCc2ccc(C(=O)NC3CC3)o2)cc1` stands 0.0473 µM; under `CCOC(=O)c1cn(CC)c2cc(N(C)CCc3ccc(OC)c(OC)c3)c(F)cc2c1=O`, 0.0421 µM.
Next, `Cc1oc2c(c1C(=O)NC1CCS(=O)(=O)C1)C(=O)c1ccccc1C2=O` (stereo unspecified): 0.00229 µM; `CCc1ccccc1N=C1c2c(cccc2[N+](=O)[O-])C(=O)C1C(C)=O` (stereo unspecified): 2.03 µM.
For the molecule `Cc1cccc(C)c1N(CC(=O)NCc1ccco1)S(C)(=O)=O`, the IC50 was > 10 µM (inactive).
